Test results taken from US20230310334A1, “LIPID NANOPARTICLE” (SHENZHEN SHENXIN BIOTECHNOLOGY CO., LTD., priority 2020, published 2023).

Tested on: luciferase mRNA (Fluc mRNA) expression
Experiment: Luciferase mRNA delivery performance in vivo of lipid nanoparticles prepared from amino lipid compounds (IVIS imaging)
Design: species or system BALB/c mice
Conditions: for Average fluorescence intensity (subcutaneous) / Average fluorescence intensity (intramuscular) / Average fluorescence intensity (tail vein): Fluc mRNA LNP, 0.5 mg/kg, imaging 6 hours after injection, male BALB/c mice; for Average fluorescence intensity (subcutaneous) / Average fluorescence intensity (intramuscular): preparation process I (DOPE); for Average fluorescence intensity (tail vein): preparation process II (DSPC); for delivery capacity after introduction of the alkynyl group: in vivo delivery, compared with corresponding amino lipid compounds without alkynyl group (36, 37)
Procedure: Example 40: Evaluation of Luciferase mRNA Delivery Performance In Vivo of Lipid Nanoparticles Prepared from Amino Lipid Compounds
Preparation of lipid nanoparticles:
Preparation process I: The amino lipid compound described in the present invention and DOPE, cholesterol, PEG2000-DMG were mixed and dissolved in absolute ethanol in a molar ratio of 45:10:42.5:2.5. Two microinjection pumps were used, and the ratio of ethanol solution to sodium acetate solution (50 mM, pH=4.0) was controlled to be 1:3. A crude solution of lipid nanoparticles was prepared in a micro flow channel chip, then dialyzed for 6 hours with 1×PBS at a controlled temperature of 4° C. by using a dialysis cassette (Fisher, MWCO 20,000), and filtered with a 0.22 μm microporous filter membrane before use. The mass ratio of the amino lipid compound to luciferase mRNA (Fluc mRNA) was about 10:1. The administration route included subcutaneous and intramuscular injections.
Preparation process II: the molar ratio of amino lipid compound to DSPC, cholesterol, PEG2000-DMG was 50:10:38.5:1.5, and the preparation process was identical to the preparation process I. The administration route was tail vein administration.
Animal preparation: 6-week-old male BALB/c mice with body weights of about 20 g were selected, and fed in an SPF-grade feeding room. Animal experiments were strictly carried out according to the guidelines of the national health institution and the requirements of animal ethics. In vivo delivery: 9 mice were randomly selected per group and injected with lipid nanoparticles at a dose of 0.5 mg/kg by three administration routes: subcutaneous, intramuscular, and tail vein, respectively (three animals per administration route). After 6 hours, […] of 10 mg/mL potassium […] was injected into each mouse via the tail vein, and after 10 minutes, the mice were placed under an in vivo imaging system (IVIS-200, Xenogen), and the total fluorescence intensity of each mouse was observed and recorded by photographing. The expression intensities of Fluc mRNA delivered by the three administration routes of representative amino lipid compounds were shown in Tables 1-3. DLin-MC3 was used as a control.

SMILES	Average fluorescence intensity (subcutaneous)	Average fluorescence intensity (intramuscular)	Average fluorescence intensity (tail vein)	delivery capacity after introduction of the alkynyl group
CCCCC#CCOC(=O)CCCCCCCN(CCCO)CCCCCCCC(=O)OC(CCCCCCCC)CCCCCCCC [Compound 1]	1.4E+07			
CCCCCC#CCOC(=O)CCCCCCCN(CCCO)CCCCCCCC(=O)OC(CCCCCCCC)CCCCCCCC [Compound 2]	1.1E+07	2.4E+06		
CCCCCCC#CCOC(=O)CCCCCCCN(CCCO)CCCCCCCC(=O)OC(CCCCCCCC)CCCCCCCC [Compound 3]	2.1E+06	2.1E+06	2.1E+07	
CCCCCCCC#CCOC(=O)CCCCCCCN(CCCO)CCCCCCCC(=O)OC(CCCCCCCC)CCCCCCCC [Compound 4]	2.1E+05	2.1E+06	2.9E+07	
CCCCC#CCCOC(=O)CCCCCCCN(CCCO)CCCCCCCC(=O)OC(CCCCCCCC)CCCCCCCC [Compound 5]	7.1E+06			
CCCCCC#CCCOC(=O)CCCCCCCN(CCCO)CCCCCCCC(=O)OC(CCCCCCCC)CCCCCCCC [Compound 6]	2.1E+06	2.1E+05		
CCCCCCC#CCCOC(=O)CCCCCCCN(CCCO)CCCCCCCC(=O)OC(CCCCCCCC)CCCCCCCC [Compound 7]	2.1E+05	4.1E+05	8.1E+06	
CCCC#CCCCOC(=O)CCCCCCCN(CCCO)CCCCCCCC(=O)OC(CCCCCCCC)CCCCCCCC [Compound 8]	7.1E+06	2.1E+07	6.1E+06	
CCCCC#CCCCOC(=O)CCCCCCCN(CCCO)CCCCCCCC(=O)OC(CCCCCCCC)CCCCCCCC [Compound 9]	2.7E+06	5.1E+06	2.8E+07	
CCCCCC#CCCCOC(=O)CCCCCCCN(CCCO)CCCCCCCC(=O)OC(CCCCCCCC)CCCCCCCC [Compound 10]	3.1E+05	2.1E+05	2.5E+07	
CCCCCCC#CCCCOC(=O)CCCCCCCN(CCCO)CCCCCCCC(=O)OC(CCCCCCCC)CCCCCCCC [Compound 11]	2.1E+05	2.1E+06	5.1E+07	
CCCCCC#CCOC(=O)CCCCCCCN(CCO)CCCCCCCC(=O)OC(CCCCCCCC)CCCCCCCC [Compound 12]	3.2E+07	2.1E+06		
CCCCCCC#CCOC(=O)CCCCCCCN(CCO)CCCCCCCC(=O)OC(CCCCCCCC)CCCCCCCC [Compound 13]	2.6E+07	2.1E+06		
CCCCCCC#CCCOC(=O)CCCCCCCN(CCO)CCCCCCCC(=O)OC(CCCCCCCC)CCCCCCCC [Compound 14]	2.1E+06	4.1E+06	1.1E+07	
CCCCC#CCCOC(=O)CCCCCCCN(CCCCO)CCCCCCCC(=O)OC(CCCCCCCC)CCCCCCCC [Compound 15]	3.1E+05	2.8E+07		
CCCCCC#CCCOC(=O)CCCCCCCN(CCCCO)CCCCCCCC(=O)OC(CCCCCCCC)CCCCCCCC [Compound 16]	2.7E+06	1.4E+07		
CCCCC#CCCCOC(=O)CCCCCCCN(CCCCO)CCCCCCCC(=O)OC(CCCCCCCC)CCCCCCCC [Compound 17]	2.5E+06	2.7E+06	5.1E+07	significantly enhanced

SMILES	Average fluorescence intensity (subcutaneous)	Average fluorescence intensity (intramuscular)	Average fluorescence intensity (tail vein)	delivery capacity after introduction of the alkynyl group
CCCCC#CCCCOC(=O)CCCCCCCN(CCCCCCCC(=O)OC(CCCCCCCC)CCCCCCCC)C1CC(O)C1 (centres unmarked) [Compound 18]			7.1E+07	
CCCCCC#CCCCOC(=O)CCCCCCCN(CCCCCCCC(=O)OC(CCCCCCCC)CCCCCCCC)C1CCC(O)C1 (centres unmarked) [Compound 19]		2.1E+05	9.1E+06	
CCCCCC#CCCCOC(=O)CCCCCCCN(CCCCCCCC(=O)OC(CCCCCC)CCCCCCCC)C1CCC(O)C1 (centres unmarked) [Compound 20]	3.7E+07	5.2E+05		
CCCCCC#CCCCOC(=O)CCCCCCCN(CCCCCCCC(=O)OC(CCCCCCCC)CCCCCCCC)C1CCC(O)CC1 (centres unmarked) [Compound 21]	4.1E+06	1.1E+07		
CCCCC#CCCCOC(=O)CCCCN(CCCCO)CCCCCCCC(=O)OC(CCCCCCCC)CCCCCCCC [Compound 22]	2.8E+07	3.1E+05		
CCCCC#CCCCOC(=O)CCCCCCCCCN(CCCCO)CCCCCCCC(=O)OC(CCCCCCCC)CCCCCCCC [Compound 23]		2.7E+05	6.1E+07	
CCCCC#CCCCOC(=O)CCCCCCCCCCCCCN(CCCCO)CCCCCCCC(=O)OC(CCCCCCCC)CCCCCCCC [Compound 24]		2.1E+05	7.8E+06	
CCCCC#CCCCOC(=O)CCCCCCCCCCCCCN(CCCO)CCCCCCCC(=O)OC(CCCC)CCCC [Compound 25]	2.6E+07	2.1E+05		
CCCCC#CCCCOC(=O)CCCCCCCCCCCCCN(CCCO)CCCCCCCC(=O)OC(CCCC)CCCCCC (centres unmarked) [Compound 26]	1.7E+06	6.1E+07		
CCCCC#CCCCOC(=O)CCCCN(CCCO)CCCCCCCC(=O)OCC(CCCCCC)CCCCCCCC (centres unmarked) [Compound 28]	2.1E+06	6.1E+07		
CCCCCCCCCC#CC(=O)OCCCCCCCN(CCCO)CCCCCCCOC(=O)C(CCCCCC)CCCCCCCC (centres unmarked) [Compound 29]	8.1E+06	1.8E+07		
CCCC#CCCCOC(=O)CCCCCCCN(CCCC#N)CCCCCCCC(=O)OC(CCCCCCCC)CCCCCCCC [Compound 30]	7.1E+06	1.1E+07		
CCCCC#CCCCOC(=O)CCCCCCCN(CCCCCCCC(=O)OC(CCCCCCCC)CCCCCCCC)CCCN(C)C [Compound 31]	5.1E+05	1.5E+07		significantly enhanced
CCCC#CCCCOC(=O)CCCCCCCN(CCCCCCCC(=O)OC(CCCCCCCC)CCCCCCCC)CCCN1CCOCC1 [Compound 32]	7.1E+05	2.8E+07		
CCCCC#CCCCOC(=O)CCCCCCCN(CCCCCCCC(=O)OC(CCCCCCCC)CCCCCCCC)CCCOC(=O)CCCCC [Compound 33]	3.1E+06	1.1E+07		
CCCCC#CCCCOC(=O)CCCCCCCN(CCCCCCCC(=O)OC(CCCCCCCC)CCCCCCCC)CCCNC(=O)CCCCC [Compound 34]	5.3E+05	4.8E+06		
